From PMC8005375, “Massiliamide, a cyclic tetrapeptide with potent tyrosinase inhibitory properties from the Gram-negative bacterium Massilia albidiflava DSM 17472^T” (The Journal of Antibiotics, 2020)
Square brackets hold non-standard residues; d marks the D form. Peptide text beside a SMILES is read from it.

Columns and labels:
HeLa cell line = HeLa cell line at 64 µg ml^−1; resazurin assay
Description: The cytotoxicity test against the HeLa human cervical carcinoma cell line was performed in RPMI cell culture medium supplemented with 10% fetal bovine serum using the 7-hydroxy-3H-phenoxazin-3-one-10-oxide (resazurin) assay. A twofold serial dilution of the test compounds was prepared in duplicates in a microtiter plate and seeded with trypsinized HeLa cells to a final cell concentration of 1 × 10^4 cells per well. After 24 h incubation at 37°C, 5 % CO2, 95% relative humidity, resazurin was added at a final concentration of 200 µM, and cells were again incubated overnight. Cell viability was assessed by determining the reduction of resazurin to the fluorescent resorufin. Fluorescence was measured in a TECAN M200 reader at an excitation wavelength of 560 nm and an emission wavelength of 600 nm in relation to the untreated control.

tyrosinase = tyrosinase (Agaricus bisporus, UniProt C7FF04); experiment: Tyrosinase inhibition assay (kit MAK257); format: biochemical; conditions: comparison of IC50 values with arbutin and kojic acid
Description: In brief, 20 µL massiliamide (1) with various concentrations (0.05–5 µM) was added into 50 µL tyrosinase enzyme solutions that contained 48 µL MAK257A buffer and 2 µL of tyrosinase. The mixture was then incubated for 10 min at 25°C, followed by the addition of 30 µL substrate solution, containing 23 µL MAK257A buffer, 2 µL tyrosinase substrate, and 5 µL tyrosinase enhancer. The final reaction mixture was then homogenized by shaking and immediately monitored at 510 nm using a Tecan Infinite 200 Pro microplate reader, applying the kinetic mode for 30-60 min. […] Each measurement was conducted in three independent replications.

E. faecium BM 4147-1 = conditions: cation-adjusted Mueller-Hinton medium, twofold serial dilution (CLSI), 5 × 10^5 CFU per mL, overnight, 37°C
Description: (§1) The minimal inhibitory concentration (MIC) was determined in a cation-adjusted Mueller-Hinton medium that contains casein, beef extract and starch by using a twofold serial dilution method according to the standards and guidelines of the Clinical and Laboratory Standards Institute (CLSI). In brief, a twofold serial dilution of the test compound was prepared in microtiter plates and seeded using a final inoculum of bacteria of 5 × 10^5 colony-forming units per mL. […] The strain panel included representative species of nosocomial pathogens, which are known as “ESKAPE” bacteria. Specifically, the following strains were used: Enterococcus faecium BM 4147–1, Staphylococcus aureus ATCC 29213, Klebsiella pneumoniae ATCC 12657, Acinetobacter baumannii 09987, Pseudomonas aeruginosa ATCC 27853 and Enterobacter aerogenes ATCC 13048. Bacillus subtilis 168 and Escherichia coli ATCC 25922 were used as further reference strains. The ATCC strains were provided by the American Type Culture Collection. A. baumannii 09987 was obtained from the University of Bonn, Germany.

K. pneumonia ATCC 12657 = conditions: cation-adjusted Mueller-Hinton medium, twofold serial dilution (CLSI), 5 × 10^5 CFU per mL, overnight, 37°C
Description: as §1

B. subtilis 168 = conditions: cation-adjusted Mueller-Hinton medium, twofold serial dilution (CLSI), 5 × 10^5 CFU per mL, overnight, 37°C
Description: as §1

P. aeruginosa ATCC 27853 = conditions: cation-adjusted Mueller-Hinton medium, twofold serial dilution (CLSI), 5 × 10^5 CFU per mL, overnight, 37°C
Description: as §1

A. baumannii 09987 = conditions: cation-adjusted Mueller-Hinton medium, twofold serial dilution (CLSI), 5 × 10^5 CFU per mL, overnight, 37°C
Description: as §1

E. coli ATCC 25922 = conditions: cation-adjusted Mueller-Hinton medium, twofold serial dilution (CLSI), 5 × 10^5 CFU per mL, overnight, 37°C
Description: as §1

E. aerogenes ATCC 13048 = conditions: cation-adjusted Mueller-Hinton medium, twofold serial dilution (CLSI), 5 × 10^5 CFU per mL, overnight, 37°C
Description: as §1

[1] = test system: strain panel of "ESKAPE" bacteria, Bacillus subtilis 168 and Escherichia coli ATCC 25922; conditions: broth microdilution, up to the highest concentration tested (64 µg ml^−1)
Description: as §1

S. aureus ATCC 2921 = conditions: cation-adjusted Mueller-Hinton medium, twofold serial dilution (CLSI), 5 × 10^5 CFU per mL, overnight, 37°C
Description: The minimal inhibitory concentration (MIC) was determined in a cation-adjusted Mueller-Hinton medium that contains casein, beef extract and starch by using a twofold serial dilution method according to the standards and guidelines of the Clinical and Laboratory Standards Institute (CLSI) [10]. In brief, a twofold serial dilution of the test compound was prepared in microtiter plates and seeded using a final inoculum of bacteria of 5 × 10^5 colony-forming units per mL.

Chain of tyrosinase (C7FF04 whole entry): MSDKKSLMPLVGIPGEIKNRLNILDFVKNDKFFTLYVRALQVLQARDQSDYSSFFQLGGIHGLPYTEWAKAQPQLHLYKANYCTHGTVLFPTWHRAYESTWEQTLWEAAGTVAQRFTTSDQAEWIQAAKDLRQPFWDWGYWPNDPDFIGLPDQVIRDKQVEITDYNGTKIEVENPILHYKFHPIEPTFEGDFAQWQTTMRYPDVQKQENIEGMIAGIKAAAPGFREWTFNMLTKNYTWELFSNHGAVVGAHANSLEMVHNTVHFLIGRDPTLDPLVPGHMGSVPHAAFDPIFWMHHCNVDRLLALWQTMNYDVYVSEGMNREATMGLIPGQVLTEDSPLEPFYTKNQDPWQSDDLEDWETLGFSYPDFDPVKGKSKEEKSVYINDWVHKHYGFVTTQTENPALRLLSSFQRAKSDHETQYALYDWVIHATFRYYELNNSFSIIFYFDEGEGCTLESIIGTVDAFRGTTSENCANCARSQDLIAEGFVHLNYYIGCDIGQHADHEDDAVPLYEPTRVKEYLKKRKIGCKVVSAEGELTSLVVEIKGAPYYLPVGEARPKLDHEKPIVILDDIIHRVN

CC(C)[C@H]1NC(=O)[C@@H]2CCCN2C(=O)[C@@H](Cc2ccc(O)cc2)NC(=O)[C@@H]2CCCN2C1=O [Massiliamide (1)] (cyclo(P[dY]P[dV]))
Cytotoxicity (in words) (HeLa cell line): no cytotoxicity
Tyrosinase inhibition compared with positive controls (in words) (tyrosinase): surpassed readily the activities of the positive controls arbutin and kojic acid
MIC (E. faecium BM 4147-1): > 64 µg/mL
MIC (K. pneumonia ATCC 12657): > 64 µg/mL
MIC (B. subtilis 168): > 64 µg/mL
MIC (P. aeruginosa ATCC 27853): > 64 µg/mL
MIC (A. baumannii 09987): > 64 µg/mL
MIC (E. coli ATCC 25922): > 64 µg/mL
MIC (E. aerogenes ATCC 13048): > 64 µg/mL
Antimicrobial activity (in words) [1]: inactive up to the highest concentration tested
MIC (S. aureus ATCC 2921): > 64 µg/mL
